This experiment deals with T1, MDM2 (Homo sapiens, UniProt Q00987).
T1 construct: made in house
T1 sequence (Q00987 whole entry): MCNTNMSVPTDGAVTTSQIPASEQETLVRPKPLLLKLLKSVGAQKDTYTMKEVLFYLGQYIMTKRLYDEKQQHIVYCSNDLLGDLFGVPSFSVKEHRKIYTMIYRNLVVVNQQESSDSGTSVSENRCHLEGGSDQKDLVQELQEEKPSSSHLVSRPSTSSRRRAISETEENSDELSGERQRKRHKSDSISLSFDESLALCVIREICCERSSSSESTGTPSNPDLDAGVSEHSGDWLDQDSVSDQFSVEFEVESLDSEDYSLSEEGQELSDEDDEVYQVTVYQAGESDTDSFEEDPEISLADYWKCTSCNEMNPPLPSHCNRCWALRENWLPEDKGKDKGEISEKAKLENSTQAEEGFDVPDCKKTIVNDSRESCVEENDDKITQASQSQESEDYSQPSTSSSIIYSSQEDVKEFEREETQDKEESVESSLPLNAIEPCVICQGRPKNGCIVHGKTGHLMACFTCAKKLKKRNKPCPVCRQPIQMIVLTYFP
In words: Inhibition test of MDM2-P53 (GST-MDM2, Biotin-P53, Anti-GST-Tb, SA-XL665). Type of experiment: binding. The settings on record: labels are Example numbers; the compounds with S-configuration are meant. How it is done: Experimental purpose: To determine the inhibitory activities of the compounds of the present invention on MDM2.
The present experiment uses the following assay methods/instruments/reagents:
Buffer: 1×PBS+0.1% BSA+5 mM DTT; MDM2 Buffer: Buffer+1 mM AEBSF
GST-MDM2: The final concentration is 4 nM, and it is required to formulate a 20 nM (5×) solution. A mother liquor is diluted by 3500 folds, wherein the mother liquor is 10-fold diluted first, and then 350-fold diluted.
Anti-GST-Tb: The final concentration is 2×, and a mother liquor is diluted by 50 folds.
MIX: GST-MDM2, Biotin-P53, SA-XL665 and Anti-GST-Tb were mixed according to a ratio of 4:4:5:5.
Sample: Preparation of a sample (10 mM in DMSO) solution: a. 3 μL sample+7 μL DMSO+20 μL DMSO were formulated to give an initial concentration of 1 mM and mixed well; b. in plate 1, twelve 5-fold serial dilutions (sequentially prepared by adding 10 μL of the last sample to 40 μL DMSO) were prepared and mixed well, individually; c. plate 2 was taken, 45 μL of Buffer was added to each well, and 5 μL of dilution at each concentration was taken from plate 1 and added to the corresponding well in plate 2 (the concentration in well 1 was 100 μM), and mixed well.
1. 18 μL of MIX was added to a 384-well plate, and centrifugation was performed at 4500 rpm for 5 min.
2. 2 μL of sample was added correspondingly to each well, the resultant was centrifuged at 25° C. and 4500 rpm for 5 min, and shaked at 25° C. for 90 min on a shaker.
Readings were obtained from the Microplate reader, and data was processed by Graphpad Prism 6.0.
Turning to `COc1ccc(-c2nc3c(n2C(C)C)C2(C(=O)Nc4cc(Cl)ccc42)N(c2cc(Cl)c(=O)n(C)c2)C3=O)c(OC)c1` (stereo not drawn) [Example 52, 6-chloro-5′-(5-chloro-1-methyl-6-oxo-1,6-dihydropyridin-3-yl)-2′-(2,4-dimethoxyphenyl)-3′-isopropyl-3′H-spiro[dihydroindole-3,4′-pyrrolo[3,4-d]imidazole]-2,6′(5′H)-dione], the “inhibitory effect on MDM2 compared with positive control compound HDM201” value was “better”.

Regarding `COc1ccccc1-c1nc2c(n1C(C)C)C1(C(=O)Nc3cc(Cl)ccc31)N(c1cc(Cl)c(=O)n(C)c1)C2=O` (stereo not drawn) [Example 53, 6-chloro-5′-(5-chloro-1-methyl-6-oxo-1,6-dihydropyridin-3-yl)-3′-isopropyl-2′-(2-methoxyphenyl)-3′H-spiro[dihydroindole-3,4′-pyrrolo[3,4-d]imidazole]-2,6′(5′H)-dione], the “inhibitory effect on MDM2 compared with positive control compound HDM201” value was “better”.

Consider `COc1ccc(C)cc1-c1nc2c(n1C(C)C)C1(C(=O)Nc3cc(Cl)ccc31)N(c1cc(Cl)ccc1C)C2=O` (stereo not drawn) [Example 62, 6-chloro-5′-(5-chloro-2-methylphenyl)-3′-isopropyl-2′-(2-methoxy-5-methylphenyl)-3′H-spiro[dihydroindole-3,4′-pyrrolo[3,4-d]imidazole]-2,6′(5′H)-dione], for which the “inhibitory effect on MDM2 compared with positive control compound HDM201” value was “better”.

For the molecule `COc1ccc(N2C(=O)c3nc(-c4ccccc4OC)n(C(C)C)c3C23C(=O)Nc2cc(Cl)ccc23)cc1Cl` (stereo not drawn) [Example 63, 6-chloro-5′-(3-chloro-4-methoxyphenyl)-3′-isopropyl-2′-(2-methoxyphenyl)-3′H-spiro[dihydroindole-3,4′-pyrrolo[3,4-d]imidazole]-2,6′(5′H)-dione], the “inhibitory effect on MDM2 compared with positive control compound HDM201” value is recorded as “better”.

`COc1cc(N)ccc1-c1nc2c(n1C(C)C)C1(C(=O)Nc3cc(Cl)ccc31)N(c1cc(Cl)ccc1F)C2=O` (stereo not drawn) [Example 66, 2′-(4-amino-2-methoxyphenyl)-6-chloro-5′-(5-chloro-2-fluorophenyl)-3′-isopropyl-3′H-spiro[dihydroindole-3,4′-pyrrolo[3,4-d]imidazole]-2,6′(5′H)-dione]: the “inhibitory effect on MDM2 compared with positive control compound HDM201” value is on record as “better”.

Regarding `COc1cc(N)ccc1-c1nc2c(n1C(C)C)C1(C(=O)Nc3cc(Cl)ccc31)N(c1cc(F)cc(Cl)c1)C2=O` (stereo not drawn) [Example 67, 2′-(4-amino-2-methoxyphenyl)-6-chloro-5′-(3-chloro-5-fluorophenyl)-3′-isopropyl-3′H-spiro[dihydroindole-3,4′-pyrrolo[3,4-d]imidazole]-2,6′(5′H)-dione], the “inhibitory effect on MDM2 compared with positive control compound HDM201” value is reported as “better”.

`COc1ccc(CC(=O)N(C)C)cc1-c1nc2c(n1C(C)C)C1(C(=O)Nc3cc(Cl)ccc31)N(c1cc(Cl)ccc1C)C2=O` (stereo not drawn) [Example 70, 2-(3-(6-chloro-5′-(5-chloro-2-methylphenyl)-3′-isopropyl-2,6′-dioxo-5′,6′-dihydro-3′H-spiro[dihydroindole-3,4′-pyrrolo[3,4-d]imidazole]-2′-yl)-4-methoxyphenyl)-N,N-dimethylacetamide]: the “inhibitory effect on MDM2 compared with positive control compound HDM201” value was “better”.

For the molecule `COc1cc(N)ccc1-c1nc2c(n1C(C)C)C1(C(=O)Nc3cc(Cl)ccc31)N(c1ccc(F)c(Cl)c1)C2=O` (stereo not drawn) [Example 73, 2′-(4-amino-2-methoxyphenyl)-6-chloro-5′-(3-chloro-4-fluorophenyl)-3′-isopropyl-3′H-spiro[dihydroindole-3,4′-pyrrolo[3,4-d]imidazole]-2,6′(5′H)-dione], the “inhibitory effect on MDM2 compared with positive control compound HDM201” value is on record as “better”.

Regarding `COc1cc(C(N)=O)ccc1-c1nc2c(n1C(C)C)C1(C(=O)Nc3cc(Cl)ccc31)N(c1cc(Cl)ccc1C)C2=O` (stereo not drawn) [Example 77, 4-(6-chloro-5′-(5-chloro-2-methylphenyl)-3′-isopropyl-2,6′-dioxo-5′,6′-dihydro-3′H-spiro[dihydroindole-3,4′-pyrrolo[3,4-d]imidazole]-2′-yl)-3-methoxybenzamide], the “inhibitory effect on MDM2 compared with positive control compound HDM201” value is “better”.

For the molecule `COc1cccc(OC)c1-c1nc2c(n1C(C)C)C1(C(=O)Nc3cc(Cl)ccc31)N(c1cc(Cl)ccc1C)C2=O` (stereo not drawn) [Example 79, 6-chloro-5′-(5-chloro-2-methylphenyl)-2′-(2,6-dimethoxyphenyl)-3′-isopropyl-3′H-spiro[dihydroindole-3,4′-pyrrolo[3,4-d]imidazole]-2,6′(5′H)-dione], the “inhibitory effect on MDM2 compared with positive control compound HDM201” value was “better”.

For `COc1cc(N(C)C)ccc1-c1nc2c(n1C(C)C)C1(C(=O)Nc3cc(Cl)ccc31)N(c1cc(Cl)ccc1F)C2=O` (stereo not drawn) [Example 81, 6-chloro-5′-(5-chloro-2-fluorophenyl)-2′-(4-(dimethylamino)-2-methoxyphenyl)-3′-isopropyl-3′H-spiro[dihydroindole-3,4′-pyrrolo[3,4-d]imidazole]-2,6′(5′H)-dione], the “inhibitory effect on MDM2 compared with positive control compound HDM201” value is recorded as “better”.

For the molecule `COc1nc(N)ncc1-c1nc2c(n1C(C)C)C1(C(=O)Nc3cc(Cl)ccc31)N(c1cc(Cl)ccc1C)C2=O` (stereo not drawn) [Example 90, 2′-(2-amino-4-methoxypyrimidin-5-yl)-6-chloro-5′-(5-chloro-2-methylphenyl)-3′-isopropyl-3′H-spiro[dihydroindole-3,4′-pyrrolo[3,4-d]imidazole]-2,6′(5′H)-dione], the “inhibitory effect on MDM2 compared with positive control compound HDM201” value is listed as “better”.

`COc1cc(OC(C)C)ncc1-c1nc2c(n1C(C)C)C1(C(=O)Nc3cc(Cl)ccc31)N(c1cccc(Cl)c1)C2=O` (stereo not drawn) [Example 95, 6-chloro-5′-(3-chlorophenyl)-2′-(6-isopropoxy-4-methoxypyridin-3-yl)-3′-isopropyl-3′H-spiro[dihydroindole-3,4′-pyrrolo[3,4-d]imidazole]-2,6′(5′H)-dione]: the “inhibitory effect on MDM2 compared with positive control compound HDM201” value is “better”.

`COc1cc(N(C)C)ncc1-c1nc2c(n1C(C)C)C1(C(=O)Nc3cc(Cl)ccc31)N(c1cc(Cl)ccc1C)C2=O` (stereo not drawn) [Example 111, 6-chloro-5′-(5-chloro-2-methylphenyl)-2′-(6-(dimethylamino)-4-methoxypyridin-3-yl)-3′-isopropyl-3′H-spiro[dihydroindole-3,4′-pyrrolo[3,4-d]imidazole]-2,6′(5′H)-dione]: the “inhibitory effect on MDM2 compared with positive control compound HDM201” value is “better”.

`COc1nc(N(C)C)ncc1-c1nc2c(n1C(C)C)C1(C(=O)Nc3cc(Cl)ccc31)N(c1cccc(Cl)c1)C2=O` (stereo not drawn) [Example 112, 6-chloro-5′-(3-chlorophenyl)-2′-(2-(dimethylamino)-4-methoxypyrimidin-5-yl)-3′-isopropyl-3′ H-spiro[dihydroindole-3,4′-pyrrolo[3,4-d]imidazole]-2,6′ (5′ H)-dione]: the “inhibitory effect on MDM2 compared with positive control compound HDM201” value was “better”.

For `COc1cc(C#N)ccc1-c1nc2c(n1C(C)C)C1(C(=O)Nc3cc(Cl)ccc31)N(c1cccc(Cl)c1)C2=O` (stereo not drawn) [Example 128], the “inhibitory effect on MDM2 compared with positive control compound HDM201” value is reported as “better”.

On to `COc1cc(OC)c(-c2nc3c(n2C(C)C)C2(C(=O)Nc4cc(Cl)ccc42)N(c2cc(Cl)ccc2F)C3=O)cn1` (stereo not drawn) [Example 133, 6-chloro-5′-(5-chloro-2-fluorophenyl)-2′-(4,6-dimethoxypyridin-3-yl)-3′-isopropyl-3′H-spiro[dihydroindole-3,4′-pyrrolo[3,4-d]imidazole]-2,6′(5′H)-dione], for which the “inhibitory effect on MDM2 compared with positive control compound HDM201” value is listed as “better”.

Turning to `COc1nc(N(C)C)ncc1-c1nc2c(n1C(C)C)C1(C(=O)Nc3cc(Cl)ccc31)N(c1cc(Cl)cnc1C)C2=O` (stereo not drawn) [Example 135, 6-chloro-5′-(5-chloro-2-methylpyridin-3-yl)-2′-(2-(dimethylamino)-4-methoxypyrimidin-5-yl)-3′-isopropyl-3′H-spiro[dihydroindole-3,4′-pyrrolo[3,4-d]imidazole]-2,6′(5′H)-dione], the “inhibitory effect on MDM2 compared with positive control compound HDM201” value is given as “better”.

Regarding `COc1nc(OCCF)ncc1-c1nc2c(n1C(C)C)C1(C(=O)Nc3cc(Cl)ccc31)N(c1cc(Cl)ccc1C)C2=O` (stereo not drawn) [Example 140, 6-chloro-5′-(5-chloro-2-methylphenyl)-2′-(2-(2-fluoroethoxy)-4-methoxypyrimidin-5-yl)-3′-isopropyl-3′H-spiro[dihydroindole-3,4′-pyrrolo[3,4-d]imidazole]-2,6′(5′H)-dione], the “inhibitory effect on MDM2 compared with positive control compound HDM201” value is “better”.

With `COc1cc(C(F)(F)F)ncc1-c1nc2c(n1C(C)C)C1(C(=O)Nc3cc(Cl)ccc31)N(c1cccc(Cl)c1)C2=O` (stereo not drawn) [Example 142, 6-chloro-5′-(3-chlorophenyl)-3′-isopropyl-2′-(4-methoxy-6-(trifluoromethyl)pyridin-3-yl)-3′H-spiro[dihydroindole-3,4′-pyrrolo[3,4-d]imidazole]-2,6′(5′H)-dione], the “inhibitory effect on MDM2 compared with positive control compound HDM201” value is reported as “better”.

For `COc1cc(OCCO)ccc1-c1nc2c(n1C(C)C)C1(C(=O)Nc3cc(Cl)ccc31)N(c1cc(Cl)ccc1C)C2=O` (stereo not drawn) [Example 148, 6-chloro-5′-(5-chloro-2-methylphenyl)-2′-(4-(2-hydroxyethoxy)-2-methoxyphenyl)-3′-isopropyl-3′H-spiro[dihydroindole-3,4′-pyrrolo[3,4-d]imidazole]-2,6′(5′H)-dione], the “inhibitory effect on MDM2 compared with positive control compound HDM201” value is given as “better”.

For the origin of these results see patent publication US11339171B2, “MDM2 inhibitors” (Gan & Lee Pharmaceuticals, priority 2017, dated 2022).
